Results from ChEMBL document CHEMBL5104127, “Design and preparation of N-linked hydroxypyridine-based APJ agonists” (Bioorg Med Chem Lett, 2022).

Experiments:
Apelin receptor = biological target: T1, Apelin receptor (Homo sapiens, UniProt P35414); assay: Agonist activity at human APJ receptor expressed in HEK293 cells assessed as compound stimulated inhibition of forskolin stimulated cAMP production incubated for 30 mins and measured by fluorescence based assay; type: functional, cell-based
T1 sequence (P35414 whole entry): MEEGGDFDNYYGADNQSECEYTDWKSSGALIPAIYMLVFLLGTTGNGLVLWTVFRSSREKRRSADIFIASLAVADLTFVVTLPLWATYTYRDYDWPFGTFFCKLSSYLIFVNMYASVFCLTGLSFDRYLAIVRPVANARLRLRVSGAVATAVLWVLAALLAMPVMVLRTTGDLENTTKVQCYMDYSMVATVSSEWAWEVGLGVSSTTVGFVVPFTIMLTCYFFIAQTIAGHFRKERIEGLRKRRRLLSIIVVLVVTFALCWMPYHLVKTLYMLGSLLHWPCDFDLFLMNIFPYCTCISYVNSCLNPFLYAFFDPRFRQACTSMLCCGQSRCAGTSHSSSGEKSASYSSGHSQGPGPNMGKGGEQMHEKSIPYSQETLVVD

[1] = Metabolic stability in human liver microsomes incubated for 10 mins and assessed as compound remaining; type: ADME, Microsome; conditions: read-out: Stability
[2] = Metabolic stability in rat liver microsomes incubated for 10 mins and assessed as compound remaining; type: ADME, Microsome; conditions: read-out: Stability
[3] = Cmax in rat at 1 mg/kg, po; type: ADME, organism-based; design: dose 1 mg/kg, route po; conditions: in vivo
[4] = AUC in rat at 1 mg/kg, po; type: ADME, organism-based; design: dose 1 mg/kg, route po; conditions: in vivo

| Structure (SMILES) | EC50 (Apelin receptor) [nM] | remaining at 10 min [1] [%] | remaining at 10 min [2] [%] | Cmax [3] [µM] | AUC [4] [µM·h] |
| --- | --- | --- | --- | --- | --- |
| CCCCc1nc(O)c(C(=O)N2CC[C@H](c3ccccc3)C2)c(O)c1N(c1ccccc1)C(C)C | 35 |  |  |  |  |
| CCCCc1nc(O)c(C(=O)N2CCC(c3ncc(F)cc3F)C2)c(O)c1N(CC)c1ccccc1 (stereo unspecified) | 0.24 |  |  |  |  |
| CCCCc1nc(O)c(C(=O)N2CC[C@H](c3ccccc3)C2)c(O)c1N(C)c1ccccc1 | 38 |  |  |  |  |
| CCN(c1ccccc1)c1c(-c2cccc(C)c2)nc(O)c(C(=O)N2CCC(c3ncc(F)cc3F)C2)c1O (stereo unspecified) | 0.1 | 57 | 7 |  |  |
| CCCCc1nc(O)c(C(=O)N2CCN(Cc3cccc(Cl)c3Cl)CC2)c(O)c1N(CC)c1ccccc1 | 16 |  |  |  |  |
| CCCCc1nc(O)c(C(=O)N2CC[C@@H](c3ccccc3)C2)c(O)c1N(CC)c1ccccc1 | 12 | 56 | 17 |  |  |
| CCN(c1ccccc1)c1c(-c2ccn(C)n2)nc(O)c(C(=O)N2CCC(c3ncc(F)cc3F)C2)c1O (stereo unspecified) | 0.3 | 87 | 82 | 5.2 | 4.8 |
| CCN(c1ccccc1)c1c(CC2CC2)nc(O)c(C(=O)N2CCC(c3ncc(F)cc3F)C2)c1O (stereo unspecified) | 13 |  |  |  |  |
| CCCCc1nc(O)c(C(=O)N2CC[C@H](c3ccccc3)C2)c(O)c1N(CC)c1ccccc1 | 13 | 27 | 7 |  |  |
| CCCCc1nc(O)c(C(=O)N2CCC(c3ncc(Cl)cc3F)C2)c(O)c1N(CC)c1ccccc1 (stereo unspecified) | 0.24 | 53 | 12 |  |  |
| CCCCc1nc(O)c(C(=O)N2CC[C@H](c3ccccc3)C2)c(O)c1N(C)c1ccccc1OC | > 75 |  |  |  |  |
| CCCCc1nc(O)c(C(=O)N2CCC(c3ccccc3F)C2)c(O)c1N(CC)c1ccccc1 (stereo unspecified) | 8.4 |  |  |  |  |
| CCCCc1nc(O)c(C(=O)N2CC[C@H](c3ccccc3)C2)c(O)c1N1CCCc2ccccc21 | > 150 |  |  |  |  |
| CCCCc1nc(O)c(C(=O)N2CC[C@H](c3ccccc3)C2)c(O)c1N(C)c1cccc(OC)c1 | > 75 |  |  |  |  |
| CCCCc1nc(O)c(C(=O)N2CCC(c3ccc(Cl)cn3)C2)c(O)c1N(CC)c1ccccc1 (stereo unspecified) | 0.28 | 62 | 26 |  |  |
| CCCCc1nc(O)c(C(=O)N2CC[C@H](c3ccccc3)C2)c(O)c1N1CCc2ccccc21 | 21 |  |  |  |  |
| CCCCc1nc(O)c(C(=O)N2CC[C@H](c3ccccc3)C2)c(O)c1N(C)c1ccc(OC)cc1 | 62 |  |  |  |  |
